Tests used:
Glucocorticoid receptor [1] = molecular target: T1, Glucocorticoid receptor (Rattus norvegicus, UniProt P06536); assay: Repression of AP1-luciferase reporter activity in TPA-stimulated U2OS cells expressing rat glucocorticoid receptor; format: functional, cell-based
T1 sequence (P06536 whole entry): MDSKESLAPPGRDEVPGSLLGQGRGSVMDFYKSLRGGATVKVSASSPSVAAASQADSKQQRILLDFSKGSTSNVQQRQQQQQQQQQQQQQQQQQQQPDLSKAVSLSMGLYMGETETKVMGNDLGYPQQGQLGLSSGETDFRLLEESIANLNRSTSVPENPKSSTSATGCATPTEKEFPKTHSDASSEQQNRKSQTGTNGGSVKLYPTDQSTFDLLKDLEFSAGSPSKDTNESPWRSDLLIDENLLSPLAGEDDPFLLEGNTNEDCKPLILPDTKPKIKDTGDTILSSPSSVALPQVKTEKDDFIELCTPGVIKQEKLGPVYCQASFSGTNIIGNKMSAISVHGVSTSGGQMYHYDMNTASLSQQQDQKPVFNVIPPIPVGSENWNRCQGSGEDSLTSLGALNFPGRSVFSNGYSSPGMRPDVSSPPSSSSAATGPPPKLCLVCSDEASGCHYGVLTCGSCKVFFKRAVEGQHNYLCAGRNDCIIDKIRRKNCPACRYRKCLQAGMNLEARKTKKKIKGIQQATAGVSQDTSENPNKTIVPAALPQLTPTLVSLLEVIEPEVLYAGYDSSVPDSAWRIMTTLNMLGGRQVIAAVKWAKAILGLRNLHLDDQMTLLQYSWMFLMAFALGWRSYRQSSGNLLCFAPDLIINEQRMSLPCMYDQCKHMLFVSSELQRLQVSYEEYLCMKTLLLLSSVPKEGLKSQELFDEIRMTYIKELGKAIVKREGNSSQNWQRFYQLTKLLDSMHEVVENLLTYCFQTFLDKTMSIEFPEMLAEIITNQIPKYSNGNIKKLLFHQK

Glucocorticoid receptor [2] = molecular target: T1, Glucocorticoid receptor; assay: Repression of NF-kappaB-luciferase reporter activity in TPA stimulated U2OS cells expressing rat glucocorticoid receptor; format: functional, cell-based
Glucocorticoid receptor [3] = molecular target: T1, Glucocorticoid receptor; assay: Inhibition against U2OS cells expressing rat Glucocorticoid receptor; format: cell-based
Glucocorticoid receptor [4] = molecular target: T1, Glucocorticoid receptor; assay: Effective concentration against MMTV in transactivation assay in U2OS cells expressing rat GR; format: functional, cell-based
Glucocorticoid receptor [5] = molecular target: T2, Glucocorticoid receptor (Homo sapiens, UniProt P04150); assay: Binding affinity for recombinant human glucocorticoid receptor
T2 sequence (P04150 whole entry): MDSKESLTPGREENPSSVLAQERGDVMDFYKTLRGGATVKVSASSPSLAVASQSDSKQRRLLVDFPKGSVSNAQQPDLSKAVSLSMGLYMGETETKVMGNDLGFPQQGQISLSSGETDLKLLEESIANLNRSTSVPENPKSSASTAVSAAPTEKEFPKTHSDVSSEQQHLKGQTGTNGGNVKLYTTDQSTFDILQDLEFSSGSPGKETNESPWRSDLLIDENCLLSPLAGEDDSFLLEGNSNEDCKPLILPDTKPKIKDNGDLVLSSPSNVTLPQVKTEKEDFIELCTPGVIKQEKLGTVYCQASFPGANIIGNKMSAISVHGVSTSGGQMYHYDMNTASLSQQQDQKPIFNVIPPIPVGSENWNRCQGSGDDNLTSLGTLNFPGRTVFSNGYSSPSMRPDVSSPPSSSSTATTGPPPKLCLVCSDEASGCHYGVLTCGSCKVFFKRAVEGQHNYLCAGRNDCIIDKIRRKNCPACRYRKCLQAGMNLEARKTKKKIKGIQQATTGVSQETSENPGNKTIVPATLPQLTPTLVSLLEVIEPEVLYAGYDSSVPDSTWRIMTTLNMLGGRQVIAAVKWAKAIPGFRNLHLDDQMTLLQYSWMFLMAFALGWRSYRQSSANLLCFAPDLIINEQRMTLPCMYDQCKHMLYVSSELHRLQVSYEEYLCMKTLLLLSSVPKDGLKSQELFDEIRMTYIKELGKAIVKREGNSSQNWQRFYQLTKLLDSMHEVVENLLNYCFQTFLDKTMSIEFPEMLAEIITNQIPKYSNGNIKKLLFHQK

Glucocorticoid receptor [6] = molecular target: T2, Glucocorticoid receptor; assay: Effective concentration in CV-1 cell transactivation assay; format: functional, cell-based

| Structure (SMILES) | EC50 (Glucocorticoid receptor [1]) [nM] | EC50 (Glucocorticoid receptor [2]) [nM] | IC50 (Glucocorticoid receptor [3]) [nM] | EC50 (Glucocorticoid receptor [4]) [nM] | IC50 (Glucocorticoid receptor [5]) [nM] | EC50 (Glucocorticoid receptor [6]) [nM] |
| --- | --- | --- | --- | --- | --- | --- |
| C[C@]12Cc3cnn(-c4ccc(F)cc4)c3C=C1CCC[C@@H]2C(O)c1cccc(O)c1 (stereo partly drawn) | 3 | 3 | 5.2 | 3 | – | – |
| C[C@]12Cc3cnn(-c4ccc(F)cc4)c3C=C1CCC[C@@H]2C(O)c1ccc(C(F)(F)F)cc1 (stereo partly drawn) | 31 | 24 | 14 | 31 | – | – |
| C[C@]12Cc3cnn(-c4ccc(F)cc4)c3C=C1CCC[C@@H]2C(O)c1ccc(Cl)cc1 (stereo partly drawn) | 3 | 4 | 7 | 9 | – | – |
| CC12CCC(=O)C=C1CCCC2C(O)c1ccccc1 (stereo not drawn) | – | – | – | – | 2100 | – |
| C[C@]12Cc3cnn(-c4ccc(F)cc4)c3C=C1CCC[C@@H]2C(O)c1csc2ccccc12 (stereo partly drawn) | 1.8 | 22 | 1.8 | 20 | – | – |
| Cc1ccc(C(O)[C@H]2CCCC3=Cc4c(cnn4-c4ccc(F)cc4)C[C@@]32C)cc1 (stereo partly drawn) | 3 | 8 | 2.5 | 4 | – | – |
| C[C@]12Cc3cnn(-c4ccc(F)cc4)c3C=C1CCC[C@@H]2C(O)c1ccc(O)cc1 (stereo partly drawn) | 16 | 12 | 6.6 | 20 | – | – |
| CC12CCC(=O)C=C1CCCC2C(O)c1csc2ccccc12 (stereo not drawn) | – | – | – | – | 165 | – |
| C[C@]12Cc3cnn(-c4ccc(F)cc4)c3C=C1CCC[C@@H]2C(O)c1ccc(Oc2ccccc2)cc1 (stereo partly drawn) | – | – | 15.5 | – | – | – |
| CCCCC(O)[C@H]1CCCC2=Cc3c(cnn3-c3ccc(F)cc3)C[C@@]21C (stereo partly drawn) | 8 | 3 | 0.7 | 5 | – | – |
| CCCCCCCCC(O)[C@H]1CCCC2=Cc3c(cnn3-c3ccc(F)cc3)C[C@@]21C (stereo partly drawn) | 6 | 4 | 4.9 | 4 | – | – |
| COc1cccc(C(O)[C@H]2CCCC3=Cc4c(cnn4-c4ccc(F)cc4)C[C@@]32C)c1 (stereo partly drawn) | 19 | 3 | 2.3 | 4 | – | – |
| C[C@@H]1C[C@H]2C3CCC4=CC(=O)C=C[C@]4(C)[C@@]3(F)[C@@H](O)C[C@]2(C)[C@@]1(O)C(=O)O (stereo partly drawn) | 0.2 | 0.3 | 1.4 | 0.2 | 5 | 5.6 |
| COc1cc(C(O)C2CCCC3=CC(=O)CCC32C)cc(OC)c1OC (stereo not drawn) | – | – | – | – | > 2000 | – |
| C[C@]12Cc3cnn(-c4ccc(F)cc4)c3C=C1CCC[C@@H]2C(O)c1ccccc1 (stereo partly drawn) | 3 | 4 | 7.9 | 3 | – | – |
| C[C@]12Cc3cnn(-c4ccc(F)cc4)c3C=C1CCC[C@@H]2C(O)Cc1ccccc1 (stereo partly drawn) | 17 | 11 | 5.5 | 9 | – | – |
| C[C@]12Cc3cnn(-c4ccc(F)cc4)c3C=C1CCC[C@@H]2C(O)CCc1ccccc1 (stereo partly drawn) | 7 | 3 | 8.6 | 11 | – | – |

From ChEMBL document CHEMBL1137048, “Design and evaluation of novel nonsteroidal dissociating glucocorticoid receptor ligands” (Bioorg Med Chem Lett, 2004)
